Values of other authors as cited in patent US8507276B2, “Tissue culture media used as a component of cosmetics” (La Prairie Group AG, priority 2003, dated 2013).
Where two headings read alike, the source gives them in different places.

Polarity (nonpolar lipids)	Polarity (medium-polar lipids)	Compound	other results
–	28.6 mN/m	Cetearyl Isononanoate [Cetiol SN]	–
40.3 mN/m	–	Decyl Olivate [Lipodermanol OL]	–

The remaining lines, values behind:

Compound	Polarity (nonpolar lipids)	Polarity (medium-polar lipids)	other results
CCCCCCCCOC(=O)OCCCCCCCC [Cetiol CC, Dicarpylyl Carbonate]	31.7 mN/m	–	–
C12-13 Alkyl Lactate [Cosmacol ELI]	–	–	Polarity (polar lipids): 8.8 mN/m
C12-15 Alkyl Benzoate [Finsolv TN]	–	21.8 mN/m	–
Caprylic/Capric Triglyceride [Miglyol 812]	–	21.3 mN/m	–
Octyl Cocoate [Estol 1540 EHC]	30.0 mN/m	–	–
Propylene Glycol Dicaprylate/Dicaprate [Miglyol 840]	–	–	Polarity (polar lipids): 18.7 mN/m
